Measured values published in patent publication US20160069865A1, “GM1 GANGLIOSIDOSIS HUMAN CELL MODEL AND USE THEREOF” (Korea Research Institute of Bioscience and Biotechnology, priority 2014, published 2016).

What was measured:
[1] = test system: GM1-NPCs; assay: Gene expression pattern in GM1-NPCs treated with inflammasome inhibitor (microarray, qPCR); format: cell-based, human; details: for direction of the gene expression pattern change: genes with changed expression in treated GM1-NPCs, FIG. 31, FIG. 33; for share of oligo probe pairs / genes displaying the changed expression pattern: microarray, total 27,375 oligo probe pairs, GM1-NPCs treated with 10 μM Z-YVAD-FMK or 1 μg/ml rhIL1RA
Experimental: To investigate whether or not the neural damage could be alleviated according to the increase of the activation of inflammasome related metabolic pathway in GM1, the gene expression pattern in GM1-NPCs treated with the inflammasome inhibitor was investigated.
Particularly, GM1-NPCs were differentiated according to the method described in Example <4-1>, and then treated with rhIL1RA or Z-YVAD-FMK by the same manner as described in Example <9-1>. Microarray was performed by the same manner as described in Example <7-1> in order to investigate the up- or down-regulation of the gene involved in inflammasome. […] WT-NPC was used as the normal control. As for the negative control, GM1-NPCs were treated with DMSO instead of rhIL1RA or Z-YVAD-FMK. The expression pattern (either up- or down regulation) and the mRNA expression level were investigated by the same manner as described above.

[2] = test system: GM1-NPCs; assay: Morphology of GM1-NPCs originated neurosphere after treatment with inflammasome inhibitors (phase-contrast microscopy); format: cell-based, human; details: GM1-iPSCs and neural progenitor cells differentiated from the same; summary statement
Experimental: To investigate the recovery of neural damage caused by the increased activation of inflammasome related metabolic pathway in GM1, GM1-NPCs were treated with the inflammasome inhibitors IL1β antagonist (rhIL1RA) and caspase-1 inhibitor (Z-YVAD-FMK), and then the morphology of GM1-NPCs was investigated.
Particularly, the differentiation of GM1-NPCs was induced by the same manner as described in Example <4-1>. Then, the induced GM1-NPCs were cultured in the culture medium respectively treated with 1 μg/ml rhIL1RA (R&D Systems, USA) or 10 μM Z-YVAD-FMK (Merck Millipore, Germany) in order to inhibit inflammasome therein. 2˜4 weeks later, the cultured GM1-NPCs originated neurosphere was obtained. The morphology of neurosphere was observed by phase-contrast microscopy.

[3] = GM1-NPCs treated with 10 μM Z-YVAD-FMK, FIG. 32

Molecule	direction of the gene expression pattern change [1]	share of oligo probe pairs / genes displaying the changed expression pattern [1]	GM1 patient-specific cell morphology and gene expression pattern [2]	increase of the reduced B4GALNT expression [1, 3]	reduction of GLB1 expression compared with that in GM1-NPCs [1, 3]
rhIL1RA: interleukin 1-receptor antagonist protein, SEQ. ID. NO: 2, commercial (cat #280-RA-050; R&D systems)	tendency to recover the abnormal gene expression in GM1 cells to the normal expression pattern	3.6%	recovering the GM1 patient-specific cell morphology and gene expression pattern to the normal ones		
COC(=O)C[C@H](NC(=O)[C@H](C)NC(=O)[C@@H](NC(=O)C(Cc1ccc(O)cc1)NC(=O)OCc1ccccc1)C(C)C)C(=O)CF (stereo partly drawn) [Z-YVAD-FMK, methyl (3S)-3-[(2S)-2-[(2S)-2-(2-{[(benzyloxy)carbonyl]amino}-3-(4-hydroxyphenyl)propanamido)-3-methylbutanamido]propanamido]-5-fluoro-4-oxopentanoate]	tendency to recover their gene expression patterns changed by GM1 mediated neural damage back to the normal pattern	9.3%	recovering the GM1 patient-specific cell morphology and gene expression pattern to the normal ones	2.6 fold	47%
